In ChEMBL document CHEMBL5360591, “Licochalcone A Derivatives as Selective Dipeptidyl Peptidase 4 Inhibitors with Anti-Inflammatory Effects” (J Nat Prod, 2023):
Blank lines part the entries; values can stand above or below the molecule they belong to. The source made the active and inactive calls. No cut-off for these calls is given here.

How the values were obtained:
[1] = test system: RAW264.7; assay: Anti-inflammatory activity in mouse RAW264.7 cells assessed as downregulation of LPS-stimulated IL-1beta mRNA expression at 20 to 100 uM preincubated for 4 hrs followed by LPS-stimulation for 24 hrs by qPCR analysis; format: functional, cell-based; conditions: dose 20-100 µM, time 28.0 hrs
[2] = test system: RPTEC; assay: Cytotoxicity against human RPTEC cells assessed as cell growth inhibition incubated for 48 hrs by CCK-8 assay; format: toxicity, cell-based
[3] = test system: RAW264.7; assay: Cytotoxicity against mouse RAW264.7 cells assessed as cell growth inhibition incubated for 48 hrs by CCK-8 assay; format: toxicity, cell-based; conditions: raw264.7, 48 h
[4] = Stability of the compound in artificial intestinal fluid at 10 uM incubated for 90 mins by LC-UV analysis; format: ADME; conditions: simulated gi fluid, 1.5 h
[5] = organism: Homo sapiens; assay: Selectivity index, ratio of IC50 for inhibition of recombinant human DPP9 to IC50 for inhibition of recombinant human DPP4
[6] = Metabolic stability in human liver microsomes assessed as […] drug metabolism by measuring half life at 10 uM preincubated for 3 mins followed by NADPH addition measured for 90 mins by LC-UV analysis; format: ADME, Microsome; conditions: time 93 min
[7] = target: Dipeptidyl peptidase 9 (Homo sapiens, UniProt Q86TI2); assay: Inhibition of recombinant human DPP9 using Z-GP-AMC as substrate preincubated for 5 mins followed by substrate addition and measured after 20 mins by microplate reader analysis
Dipeptidyl peptidase 9, sequence (Q86TI2 whole entry): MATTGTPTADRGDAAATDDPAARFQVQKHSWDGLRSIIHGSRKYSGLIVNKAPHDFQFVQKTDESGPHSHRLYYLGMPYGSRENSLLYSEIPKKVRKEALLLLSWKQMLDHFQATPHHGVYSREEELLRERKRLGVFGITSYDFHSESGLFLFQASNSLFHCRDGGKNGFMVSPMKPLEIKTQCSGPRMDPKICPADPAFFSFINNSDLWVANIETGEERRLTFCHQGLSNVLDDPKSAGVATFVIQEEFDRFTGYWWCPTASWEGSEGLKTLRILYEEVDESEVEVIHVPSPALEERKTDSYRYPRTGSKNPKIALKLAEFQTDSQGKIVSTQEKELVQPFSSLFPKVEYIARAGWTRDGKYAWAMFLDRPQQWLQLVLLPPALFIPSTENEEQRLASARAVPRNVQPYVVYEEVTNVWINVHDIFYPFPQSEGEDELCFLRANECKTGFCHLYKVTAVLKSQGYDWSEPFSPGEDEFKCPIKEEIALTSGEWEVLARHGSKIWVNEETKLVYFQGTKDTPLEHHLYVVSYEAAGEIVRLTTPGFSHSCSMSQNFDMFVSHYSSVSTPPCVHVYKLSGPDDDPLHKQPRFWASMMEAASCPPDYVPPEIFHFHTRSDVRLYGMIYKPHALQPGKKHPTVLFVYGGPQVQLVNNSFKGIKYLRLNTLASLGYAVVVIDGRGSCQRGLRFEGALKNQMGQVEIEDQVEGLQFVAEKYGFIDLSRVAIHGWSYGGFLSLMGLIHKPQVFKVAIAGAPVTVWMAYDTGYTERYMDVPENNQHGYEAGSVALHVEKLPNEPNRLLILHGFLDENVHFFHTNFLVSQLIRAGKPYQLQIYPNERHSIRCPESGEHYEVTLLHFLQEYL

[8] = target: T1, Dipeptidyl peptidase 4 (Homo sapiens, UniProt P27487); assay: Inhibition of DPP4 in human plasma using GP-BAN as fluorescent substrate preincubated for 5 mins followed by substrate addition and measured for 20 mins by microplate reader analysis; format: cell-free
Target sequence in this assay (P27487 whole entry): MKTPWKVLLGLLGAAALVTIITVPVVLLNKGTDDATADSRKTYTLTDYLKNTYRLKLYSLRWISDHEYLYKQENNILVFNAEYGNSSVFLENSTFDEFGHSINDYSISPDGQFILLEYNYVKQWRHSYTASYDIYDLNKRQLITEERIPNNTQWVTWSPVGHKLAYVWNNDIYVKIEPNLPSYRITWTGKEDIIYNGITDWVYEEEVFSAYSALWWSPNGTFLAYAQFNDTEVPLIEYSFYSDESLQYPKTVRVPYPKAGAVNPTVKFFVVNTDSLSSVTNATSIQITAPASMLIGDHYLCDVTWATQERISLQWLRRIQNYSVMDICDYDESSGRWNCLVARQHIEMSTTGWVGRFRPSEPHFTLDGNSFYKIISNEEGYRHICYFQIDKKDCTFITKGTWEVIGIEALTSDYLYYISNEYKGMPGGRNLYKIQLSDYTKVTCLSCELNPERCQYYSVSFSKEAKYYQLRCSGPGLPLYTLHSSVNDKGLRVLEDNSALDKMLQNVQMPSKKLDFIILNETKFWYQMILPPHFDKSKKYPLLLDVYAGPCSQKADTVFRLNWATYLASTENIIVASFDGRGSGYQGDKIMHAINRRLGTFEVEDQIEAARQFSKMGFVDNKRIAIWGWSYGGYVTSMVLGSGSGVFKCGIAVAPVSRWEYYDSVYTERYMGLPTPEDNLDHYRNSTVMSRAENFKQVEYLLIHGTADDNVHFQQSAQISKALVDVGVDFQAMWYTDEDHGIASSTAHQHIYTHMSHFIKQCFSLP

[9] = target: T2, Prolyl endopeptidase (Homo sapiens, UniProt P48147); assay: Inhibition of recombinant human PREP using Z-GP-AMC as substrate preincubated for 5 mins followed by substrate addition and measured after 20 mins by microplate reader analysis
T2 sequence (P48147 whole entry): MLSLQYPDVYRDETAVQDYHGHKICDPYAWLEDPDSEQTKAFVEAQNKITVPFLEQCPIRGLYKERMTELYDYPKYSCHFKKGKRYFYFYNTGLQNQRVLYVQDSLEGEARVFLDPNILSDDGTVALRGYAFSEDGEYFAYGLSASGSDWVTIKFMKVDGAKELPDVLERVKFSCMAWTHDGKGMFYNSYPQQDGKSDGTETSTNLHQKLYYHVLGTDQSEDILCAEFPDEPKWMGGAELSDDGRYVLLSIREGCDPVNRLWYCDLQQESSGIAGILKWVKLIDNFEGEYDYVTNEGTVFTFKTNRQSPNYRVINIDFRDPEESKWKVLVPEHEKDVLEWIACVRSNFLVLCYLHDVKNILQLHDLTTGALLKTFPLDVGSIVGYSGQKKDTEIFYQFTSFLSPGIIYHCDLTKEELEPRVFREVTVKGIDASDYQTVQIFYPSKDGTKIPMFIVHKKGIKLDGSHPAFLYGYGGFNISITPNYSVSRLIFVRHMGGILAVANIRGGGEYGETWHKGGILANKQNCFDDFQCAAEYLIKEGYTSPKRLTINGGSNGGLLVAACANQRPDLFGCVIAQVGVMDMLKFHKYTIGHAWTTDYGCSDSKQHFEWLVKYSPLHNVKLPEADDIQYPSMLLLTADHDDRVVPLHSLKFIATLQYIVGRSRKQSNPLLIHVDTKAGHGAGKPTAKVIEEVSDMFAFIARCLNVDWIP

[10] = test system: RAW264.7; assay: Anti-inflammatory activity in mouse RAW264.7 cells assessed as downregulation of LPS-stimulated IL-6 mRNA expression at 20 to 100 uM preincubated for 4 hrs followed by LPS-stimulation for 24 hrs by qPCR analysis; format: functional, cell-based; conditions: dose 20-100 µM, time 28.0 hrs
[11] = Stability of the compound in artificial gastric fluid at 10 uM incubated for 90 mins by LC-UV analysis; format: ADME; conditions: simulated gi fluid, 1.5 h
[12] = target: T1, Dipeptidyl peptidase 4; assay: Inhibition of DPP4 in human HepG2 cells using GP-BAN as substrate assessed reduction of reduction in substrate hydrolysis at 20 uM incubated for 30 mins by Hoechst 33342 staining based assay; format: cell-based
Target sequence in this assay (P27487 whole entry, looked up): as the sequence (P27487 whole entry) above

[13] = target: T3, Prolyl endopeptidase FAP (Homo sapiens, UniProt Q12884); assay: Inhibition of recombinant human FAP using Z-GP-AMC as substrate preincubated for 5 mins followed by substrate addition and measured after 20 mins by microplate reader analysis
T3 sequence (Q12884 whole entry): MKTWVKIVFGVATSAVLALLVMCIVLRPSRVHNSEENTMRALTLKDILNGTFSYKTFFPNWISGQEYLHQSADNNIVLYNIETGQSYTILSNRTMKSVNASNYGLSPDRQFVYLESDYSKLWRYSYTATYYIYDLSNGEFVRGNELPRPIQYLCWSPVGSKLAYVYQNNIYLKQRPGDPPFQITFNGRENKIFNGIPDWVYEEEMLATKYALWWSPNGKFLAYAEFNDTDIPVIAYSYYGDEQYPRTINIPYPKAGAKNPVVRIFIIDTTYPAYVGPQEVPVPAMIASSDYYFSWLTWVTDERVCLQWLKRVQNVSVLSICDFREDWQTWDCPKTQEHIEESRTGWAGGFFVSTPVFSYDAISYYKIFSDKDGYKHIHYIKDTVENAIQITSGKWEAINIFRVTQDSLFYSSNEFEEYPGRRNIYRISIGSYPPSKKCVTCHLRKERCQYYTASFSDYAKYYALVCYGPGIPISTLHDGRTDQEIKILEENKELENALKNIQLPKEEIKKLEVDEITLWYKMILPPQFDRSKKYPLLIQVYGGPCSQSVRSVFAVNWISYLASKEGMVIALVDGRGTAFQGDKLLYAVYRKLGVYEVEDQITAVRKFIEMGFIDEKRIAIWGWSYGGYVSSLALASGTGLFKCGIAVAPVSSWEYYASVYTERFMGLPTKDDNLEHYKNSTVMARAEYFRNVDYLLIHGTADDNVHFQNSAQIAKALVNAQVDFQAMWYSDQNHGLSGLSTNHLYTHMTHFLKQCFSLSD

[14] = Metabolic stability in human liver microsomes assessed as UDPGA-dependent drug metabolism by measuring half life at 10 uM preincubated for 3 mins followed by UDPGA addition measured for 90 mins by LC-UV analysis; format: ADME, Microsome; conditions: time 93 min
[15] = organism: Homo sapiens; assay: Selectivity index, ratio of IC50 for inhibition of recombinant human PREP to IC50 for inhibition of recombinant human DPP4
[16] = target: T1, Dipeptidyl peptidase 4; assay: Mixed type inhibition of DPP4 (unknown origin) using varying concentrations of GP-BAN as substrate assessed as inhibition constant
Target sequence in this assay (P27487 whole entry): as the sequence (P27487 whole entry) above

[17] = target: Prothrombin (Homo sapiens, UniProt P00734); assay: Inhibition of recombinant thrombin in human plasma using […] as substrate preincubated for 3 mins followed by substrate addition and measured for 30 mins by microplate reader analysis; format: cell-free
[18] = test system: RAW264.7; assay: Anti-inflammatory activity in mouse RAW264.7 cells assessed as downregulation of LPS-stimulated TNF-alpha mRNA expression at 20 to 100 uM preincubated for 4 hrs followed by LPS-stimulation for 24 hrs by qPCR analysis; format: functional, cell-based; conditions: dose 20-100 µM, time 28.0 hrs
[19] = target: T1, Dipeptidyl peptidase 4; assay: Inhibition of DPP4 in human Caco-2 cells using GP-BAN as substrate assessed reduction of reduction in substrate hydrolysis at 20 uM incubated for 30 mins by Hoechst 33342 staining based assay; format: cell-based
Target sequence in this assay (P27487 whole entry, looked up): as the sequence (P27487 whole entry) above

[20] = target: T1, Dipeptidyl peptidase 4; assay: Inhibition of recombinant human DPP4 using GP-BAN as substrate preincubated for 5 mins followed by substrate addition and measured after 20 mins by microplate reader analysis
Target sequence in this assay (P27487 whole entry): as the sequence (P27487 whole entry) above

SMILES: COc1cc(OC)c(/C=C/C(=O)c2ccc(O)cc2)cc1Cl
IC50 [8]: 49.2 µM

SMILES: COc1ccc(C(=O)/C=C/c2cc(Cl)c(OC)cc2OC)cc1
IC50 [8]: > 100 µM

SMILES: COc1ccc(C(=O)/C=C/c2cc(Br)c(O)cc2OC)cc1
IC50 [8]: 34 µM

SMILES: C[C@@H]1C[C@H]2[C@@H]3CCC4=CC(=O)C=C[C@]4(C)[C@@]3(F)[C@@H](O)C[C@]2(C)[C@@]1(O)C(=O)CO
Activity [1]: Active
Activity [10]: Active
Activity [18]: Active

SMILES: N[C@@H](CC(=O)N1CCn2c(nnc2C(F)(F)F)C1)Cc1cc(F)c(F)cc1F
Activity [1]: Active
Activity [10]: Active
Activity [18]: Active

SMILES: COc1cc(C(=O)/C=C/c2cc(Cl)c(O)cc2OC)ccc1O
IC50 [8]: 31.9 µM

SMILES: O=c1ccc2ccc(O)cc2o1 [UMBELLIFERONE]
half-life at 10 µM [14]: 17.1 min

SMILES: CCCOc1ccc(C(=O)/C=C/c2cc(Cl)c(OC)cc2OC)cc1
IC50 [8]: > 100 µM

SMILES: CCOc1ccc(C(=O)/C=C/c2cc(Br)c(O)cc2OC)cc1
IC50 [8]: 35 µM

SMILES: CCCCOc1ccc(C(=O)/C=C/c2cc(Br)c(O)cc2OC)cc1
IC50 [8]: > 100 µM

SMILES: CCCCOc1ccc(C(=O)/C=C/c2cc(Cl)c(O)cc2OC)cc1
IC50 [8]: 42.9 µM

SMILES: CCOc1ccc(C(=O)/C=C/c2cc(Cl)c(OC)cc2OC)cc1
IC50 [8]: > 100 µM

More lines, in order of falling IC50 [8], values ahead:

IC50 [8]: 30.4 µM
SMILES: C=CC(C)(C)c1cc(/C=C/C(=O)c2ccc(O)cc2)c(OC)cc1O [LICOAGROCHACONE A]

IC50 [8]: 26.5 µM
SMILES: CCCOc1ccc(C(=O)/C=C/c2cc(Br)c(O)cc2OC)cc1

IC50 [8]: 21.2 µM
SMILES: CCOc1ccc(C(=O)/C=C/c2cc(Cl)c(O)cc2OC)cc1

IC50 [8]: 16.4 µM
SMILES: COc1cc(O)c(Br)cc1/C=C/C(=O)c1ccc(O)cc1

IC50 [8]: 15.1 µM
SMILES: COc1cc(O)c(Cl)cc1/C=C/C(=O)c1ccc(O)c(C)c1

IC50 [8]: 12.6 µM
SMILES: COc1cc(O)c(Cl)cc1/C=C/C(=O)c1ccc(C(F)(F)F)cc1

IC50 [8]: 11.4 µM
SMILES: CCCOc1ccc(C(=O)/C=C/c2cc(Cl)c(O)cc2OC)cc1

IC50 [8]: 11 µM
SMILES: COc1ccc(C(=O)/C=C/c2cc(Cl)c(O)cc2OC)cc1

IC50 [8]: 9.87 µM
Ki [16]: 3.18 µM
SMILES: COc1cc(O)c(Cl)cc1/C=C/C(=O)c1ccc(Br)cc1

IC50 [8]: 9.09 µM
Ki [16]: 23.1 µM
SMILES: COc1ccc(C(=O)/C=C/c2cc(Cl)c(O)cc2OC)cc1O

IC50 [8]: 8.86 µM
Ki [16]: 11.1 µM
SMILES: COc1cc(O)c(Cl)cc1/C=C/C(=O)c1ccc(O)c(O)c1

IC50 [8]: 7.16 µM
inhibition [12]: Active
half-life at 10 µM [14]: 7.1 min
Ki [16]: 6.57 µM
inhibition [19]: Active
SMILES: COc1cc(O)c(Cl)cc1/C=C/C(=O)c1ccc(O)cc1
Activity [1]: Active
Activity [2]: Non-Toxic
Activity [3]: Non-Toxic
Activity [10]: Active
Activity [18]: Active

IC50 [8]: 6.67 µM
Ki [16]: 14.4 µM
SMILES: O=c1c(O)c(-c2ccc(O)cc2)oc2cc(O)cc(O)c12 [KAEMPFEROL]

IC50 [8]: 6.43 µM
Ki [16]: 17.4 µM
SMILES: COc1cc(O)c(Cl)cc1/C=C/C(=O)c1cccc(O)c1

Stability [4]: Stable
Ratio IC50 [5]: > 12.7
half-life at 10 µM [6]: 197 min
IC50 [7]: 86.3 µM
IC50 [8]: 4.27 µM
IC50 [9]: 62.1 µM
Stability [11]: Stable
inhibition [12]: Active
IC50 [13]: > 100 µM
half-life at 10 µM [14]: 25.4 min
Ratio IC50 [15]: > 12.7
Ki [16]: 0.96 µM
IC50 [17]: > 100 µM
inhibition [19]: Active
IC50 [20]: 4.87 µM
SMILES: COc1cc(O)c(Cl)cc1/C=C/C(=O)c1ccc(O)c([N+](=O)[O-])c1
Activity [1]: Active
Activity [2]: Non-Toxic
Activity [3]: Non-Toxic
Activity [10]: Active
Activity [18]: Active
